# Read-outs that look alike come from different tables or passages of the source.
# Assays:
# [1] = target: T1, BIKE (amino acids S38-E345) (K320A, K321A) (Homo sapiens, UniProt Q9NSY1, K320A/K321A); experiment: BIKE pSENs assay; format: biochemical
# T1 construct: against BIKE (amino acids S38-E345) (K320A, K321A); 6His (N, cleaved yes)
# Protocol: (§1) The recombinant proteins were independently expressed in Escherichia coli BL21(DE3) cells cultured in Luria-Bertani (LB) medium until OD600 reached 0.6-0.8, then cooled to 15° C. and supplemented with 0.5 mM isopropyl 1-thio-D-galactopyranoside (IPTG) induce protein expression 16 h. Cells were harvested and resuspended in lysis buffer (50 mM HEPES pH 7.5, 500 mM NaCl, 5 mM imidazole, 5% glycerol, 0.5 mM Tris (2-carboxyethyl) phosphine (TCEP), cOmplete Protease Inhibitor Tablet (Roche)) and lysed by microfludics high pressure homogenizer (UH-06, Union-Biotech). Proteins were purified using […] chromatography (His FF column, Bestchrom) and eluted stepwise in binding buffer with 20-300 mM imidazole. Removal of the hexahistidine tag was performed at 4° C. overnight using recombinant TEV protease and reacted with BirA to obtain the corresponding biotinylated-AAK1, BIKE or GAK proteins. Further separated in the reverse Strep column (Strep-Tactin® XT, IBA). The Biotin elution sample was collected containing untagged biotinylated protein was then purified by Ion-exchange chromatography (Mono Q 10/100 GL, Cytiva) and Size-exclusion chromatography (HiLoad 16/600 Superdex 200 pg, Cytiva). The pure protein was stored in a storage buffer 50 mM HEPES (pH 7.5), 300 mM NaCl, 5% glycerol at −80° C. Protein were characterized by SDS-PAGE, LC-MS and aSEC.
# BIKE protein was dissolved at 20 nM in 1× enzyme solution (50 mM HEPES pH7.5, 10 mM MgCl2, 1 mM DTT, 1% glycerol, 0.5 mM EGTA, 0.01% Briji35, 0.02% BSA) and 12.5 ul was incubated with 250 nl DMSO or 250 nl compound in DMSO at 25° C. for 15 min. The reaction was started by addition of 12.5 ul of 30 uM AQT0759 (Assayquant, CSKS-AQT0759B) and 40 uM ATP which were diluted in 1× substrate dilution buffer (50 mM HEPES pH7.5, 10 mM MgCl2, 1 mM DTT, 1% glycerol, 0.5 mM EGTA, 0.01% Briji35).
# [2] = target: T2, GAK (amino acids Q25-N335) (Homo sapiens, UniProt O14976); experiment: GAK pSENs assay; format: biochemical
# T2 construct: against GAK (amino acids Q25-N335); 6His (N, cleaved yes)
# T2 sequence (O14976 25-335): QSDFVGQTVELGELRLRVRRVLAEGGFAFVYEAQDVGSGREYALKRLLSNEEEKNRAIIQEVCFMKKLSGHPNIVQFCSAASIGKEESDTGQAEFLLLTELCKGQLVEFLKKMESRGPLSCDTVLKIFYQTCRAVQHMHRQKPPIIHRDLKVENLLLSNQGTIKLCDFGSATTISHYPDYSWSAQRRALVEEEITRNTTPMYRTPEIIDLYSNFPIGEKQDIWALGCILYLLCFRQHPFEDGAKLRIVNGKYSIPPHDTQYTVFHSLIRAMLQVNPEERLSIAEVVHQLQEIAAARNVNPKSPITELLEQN
# Protocol: as §1
# This example describes one illustrative method for determining the IC50 of the compounds of the present invention against GAK (amino acids Q25-N335).
# [3] = target: T3, AAK1 (amino acids T27-A365) (Homo sapiens, UniProt Q2M2I8); experiment: AAK1 pSENs assay; format: biochemical
# T3 construct: against AAK1 (amino acids T27-A365); 6His (N, cleaved yes)
# T3 sequence (Q2M2I8 27-365): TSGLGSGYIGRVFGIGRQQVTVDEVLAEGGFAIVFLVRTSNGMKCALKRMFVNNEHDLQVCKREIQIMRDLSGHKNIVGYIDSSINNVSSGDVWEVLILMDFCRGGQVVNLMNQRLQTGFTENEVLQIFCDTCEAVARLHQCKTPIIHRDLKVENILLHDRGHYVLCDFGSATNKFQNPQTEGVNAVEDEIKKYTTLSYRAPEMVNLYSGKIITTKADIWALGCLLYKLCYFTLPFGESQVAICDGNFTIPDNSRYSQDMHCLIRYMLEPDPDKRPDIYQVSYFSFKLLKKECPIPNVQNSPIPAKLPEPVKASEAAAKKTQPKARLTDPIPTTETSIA
# In short: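 Biotinylated, tag-free AAK1 T27-A365 expressed in E. coli was held at 20 nM in enzyme solution (HEPES pH 7.5, 10 mM MgCl2, DTT, EGTA, Brij35, BSA) and preincubated with compound for 15 min at 25 °C. The reaction was started with an equal volume of substrate solution containing 30 uM AQT0759 peptide and 70 uM ATP. IC50 determined.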
# AAK1 = AAK1 (Homo sapiens, UniProt Q2M2I8); experiment: pAP2M1 cell-based assay (in-cell Western)
# Sequence of AAK1 (Q2M2I8 whole entry): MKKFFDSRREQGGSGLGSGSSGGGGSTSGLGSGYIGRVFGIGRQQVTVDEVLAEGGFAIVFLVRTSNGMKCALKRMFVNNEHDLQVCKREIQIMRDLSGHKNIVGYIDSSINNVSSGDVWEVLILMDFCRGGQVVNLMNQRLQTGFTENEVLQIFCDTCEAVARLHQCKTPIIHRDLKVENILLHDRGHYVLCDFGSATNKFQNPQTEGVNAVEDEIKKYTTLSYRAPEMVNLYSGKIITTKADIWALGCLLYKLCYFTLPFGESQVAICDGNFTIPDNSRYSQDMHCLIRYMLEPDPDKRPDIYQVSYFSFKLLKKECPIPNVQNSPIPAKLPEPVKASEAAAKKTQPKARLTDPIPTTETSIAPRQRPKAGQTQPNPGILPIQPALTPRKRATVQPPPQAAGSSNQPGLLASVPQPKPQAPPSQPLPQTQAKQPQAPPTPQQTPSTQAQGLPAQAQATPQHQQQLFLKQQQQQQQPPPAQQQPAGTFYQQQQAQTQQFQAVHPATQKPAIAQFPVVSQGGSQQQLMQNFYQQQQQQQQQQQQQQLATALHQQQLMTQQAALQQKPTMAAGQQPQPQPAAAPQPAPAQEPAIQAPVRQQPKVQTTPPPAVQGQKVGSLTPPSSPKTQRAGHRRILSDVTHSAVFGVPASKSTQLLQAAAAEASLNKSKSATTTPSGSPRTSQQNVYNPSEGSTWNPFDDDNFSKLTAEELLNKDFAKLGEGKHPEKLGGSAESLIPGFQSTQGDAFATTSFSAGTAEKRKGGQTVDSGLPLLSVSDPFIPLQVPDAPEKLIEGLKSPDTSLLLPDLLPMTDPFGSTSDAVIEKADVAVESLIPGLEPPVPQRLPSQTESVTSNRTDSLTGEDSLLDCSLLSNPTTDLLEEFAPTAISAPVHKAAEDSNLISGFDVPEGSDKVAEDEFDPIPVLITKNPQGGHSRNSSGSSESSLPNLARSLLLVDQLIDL
# Description: pAP2M1 Cell-Based Assay (in-Cell Western):
# The plate was read on Licor Odyssey CLx imaging system (LICOR) to acquire fluorescence intensity at 700 channel and 800 channel.
# Data analysis: Fluorescence intensity at 700 channel served as internal standard and 800 channel were normalized with 700 channel.
# [4] = class symbols, read-out: BIKE pSENs: IC50
# [5] = class symbols, read-out: GAK pSENs:IC50
# [6] = class symbols, read-out: AAK1 pSENs: EIC50
# [7] = Hela cells co-transfected with AP2M1 and AAK1, 3 hr treatment, class symbols, read-out: AAK1 In-cell Western: IC50
# T1 sequence (Q9NSY1 38-345 K320A/K321A): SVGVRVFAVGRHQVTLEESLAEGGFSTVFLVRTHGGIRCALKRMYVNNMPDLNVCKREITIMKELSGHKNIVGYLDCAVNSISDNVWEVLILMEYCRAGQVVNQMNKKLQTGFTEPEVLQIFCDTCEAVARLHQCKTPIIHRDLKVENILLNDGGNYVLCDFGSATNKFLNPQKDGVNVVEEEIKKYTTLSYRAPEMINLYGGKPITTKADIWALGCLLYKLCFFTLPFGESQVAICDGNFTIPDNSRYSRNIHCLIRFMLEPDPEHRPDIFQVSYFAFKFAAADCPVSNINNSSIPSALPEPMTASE
"IC50 [1, 4] [nM]","IC50 [2, 5] [nM]","IC50 [3, 6] [nM]",IC50 (AAK1; [7]) [nM],Structure (SMILES),also measured
1 to 50,501 to 1500,1 to 50,–,"[2H]C([2H])([2H])N1C[C@@H](OC(=O)N2CCN(c3nc4c(-c5cc(OC)cnc5OC5CC5)cnn4cc3F)CC2)CC1=O [Compound I-117, [(3S)-5-oxo-1-(trideuteriomethyl)pyrrolidin-3-yl]4-[3-[2-(cyclopropoxy)-5-methoxy-3-pyridyl]-6-fluoro-pyrazolo[1,5-a]pyrimidin-5-yl]piperazine-1-carboxylate]",–
51 to 150,151 to 500,–,–,"CC1(OC(=O)N2CCN(c3ccn4ncc(-c5cccnc5OC5CC5)c4n3)CC2)CCNC1 (centres unmarked) [Compound I-13-5, (3-Methylpyrrolidin-3-yl) 4-[3-[2-(cyclopropoxy)-3-pyridyl]pyrazolo[1,5-a]pyrimidin-5-yl]piperazine-1-carboxylate]",–
–,501 to 1500,51 to 150,> 1500,"CC(C)Oc1ncccc1-c1cnn2ccc(N3CCN(C(=O)O[C@@]4(C)CCNC4)CC3)nc12 [Compound I-21, [(3S)-3-Methylpyrrolidin-3-yl]4-[3-(2-isopropoxy-3-pyridyl)pyrazolo[1,5-a]pyrimidin-5-yl]piperazine-1-carboxylate]",–
–,501 to 1500,> 1500,> 1500,"O=C1C[C@H](OC(=O)N2CCN(c3ccn4ncc(-c5cccnc5NC5CCC5)c4n3)CC2)CN1 [Compound I-46, [(3S)-5-oxopyrrolidin-3-yl]4-[3-[2-(cyclobutylamino)-3-pyridyl]pyrazolo [1,5-a]pyrimidin-5-yl]piperazine-1-carboxylate]",–
501 to 1500,–,51 to 150,> 1500,"CC(C)N1C[C@@H](OC(=O)N2CCN(c3ccn4ncc(-c5cccnc5OC5CC5)c4n3)CC2)CC1=O [Compound I-114, [(3S)-1-isopropyl-5-oxo-pyrrolidin-3-yl]-4-[3-[2-(cyclopropoxy)-3-pyridyl]pyrazolo[1,5-a]pyrimidin-5-yl]piperazine-1-carboxylate]",–
151 to 500,–,1 to 50,501 to 1500,"C[C@@H]1CN(c2ccn3ncc(-c4cccnc4OC4CC4)c3n2)CCN1C(=O)O[C@@H]1CNC(=O)C1 [Compound I-39, [(3S)-5-oxopyrrolidin-3-yl]-(2R)-4-[3-[2-(cyclopropoxy)-3-pyridyl]pyrazolo[1,5-a]pyrimidin-5-yl]-2-methyl-piperazine-1-carboxylate]",–
151 to 500,–,1 to 50,151 to 500,"O=C(O[C@H]1CO[C@H]2OCC[C@H]21)N1CCN(c2ccn3ncc(-c4cccnc4OC4CC4)c3n2)CC1 [Compound I-27, [(3aS,4R,6aR)-2,3,3a,4,5,6a-hexahydrofuro[2,3-b]furan-4-yl]-4-[3-[2-(cyclopropoxy)-3-pyridyl]pyrazolo[1,5-a]pyrimidin-5-yl]piperazine-1-carboxylate]",–
151 to 500,–,51 to 150,501 to 1500,"CN1C[C@@H](OC(=O)N2CCN(c3nc4c(-c5cccnc5OC5CCOCC5)cnn4cc3F)CC2)CC1=O [Compound I-122, [(3S)-1-methyl-5-oxo-pyrrolidin-3-yl]4-[6-fluoro-3-(2-tetrahydropyran-4-yloxy-3-pyridyl)pyrazolo[1,5-a]pyrimidin-5-yl]piperazine-1-carboxylate]",–
151 to 500,–,1 to 50,501 to 1500,"COC(=O)N1CC(Oc2ncccc2-c2cnn3ccc(N4CCN(C(=O)O[C@@H]5CNC(=O)C5)CC4)nc23)C1 [Compound I-58, [(3S)-5-oxopyrrolidin-3-yl]-4-[3-[2-(1-methoxycarbonylazetidin-3-yl)oxy-3-pyridyl]pyrazolo[1,5-a]pyrimidin-5-yl]piperazine-1-carboxylate]",–

# More lines, now with the values behind:
Structure (SMILES),"IC50 [1, 4] [nM]","IC50 [2, 5] [nM]","IC50 [3, 6] [nM]",IC50 (AAK1; [7]) [nM],also measured
CC1(OC(=O)N2CCN(c3ccn4ncc(-c5cccnc5OCC5COC5)c4n3)CC2)COC1 [Compound I-20],–,501 to 1500,151 to 500,> 1500,–
"C[C@@]1(OC(=O)N[C@H]2CCN(c3ccn4ncc(-c5cccnc5OC5CC5)c4n3)C2)CCNC1 [Compound I-57, (R)-3-methylpyrrolidin-3-yl ((S)-1-(3-(2-cyclopropoxypyridin-3-yl)pyrazolo[1,5-a]pyrimidin-5-yl)pyrrolidin-3-yl)carbamate]",–,501 to 1500,51 to 150,> 1500,–
"O=C(O[C@H]1CO[C@H]2OCC[C@H]21)N1CCN(c2ccn3ncc(-c4cnccn4)c3n2)CC1 [Compound I-66, [(3aS,4R,6aR)-2,3,3a,4,5,6a-hexahydrofuro[2,3-b]furan-4-yl]-4-(3-pyrazin-2-ylpyrazolo[1,5-a]pyrimidin-5-yl)piperazine-1-carboxylate]",–,501 to 1500,151 to 500,501 to 1500,–
"CN1C[C@@H](OC(=O)N2CCN(c3nc4c(-c5cccnc5OC5CCCC5)cnn4cc3F)CC2)CC1=O [Compound I-121, [(3S)-1-methyl-5-oxo-pyrrolidin-3-yl]-4-[3-[2-(cyclopentoxy)-3-pyridyl]-6-fluoro-pyrazolo[1,5-a]pyrimidin-5-yl]piperazine-1-carboxylate]",501 to 1500,–,51 to 150,> 1500,–
"[2H]C1([2H])N(C(=O)O[C@H]2CC(=O)N(C)C2)C([2H])([2H])C([2H])([2H])N(c2ccn3ncc(-c4cccnc4OC4CC4)c3n2)C1([2H])[2H] [Compound I-73, [(3S)-1-methyl-5-oxo-pyrrolidin-3-yl]-4-[3-[2-(cyclopropoxy)-3-pyridyl]pyrazolo[1,5-a]pyrimidin-5-yl]-2,2,3,3,5,5,6,6-octadeuterio-piperazine-1-carboxylate]",–,–,–,–,"IC50 (AAK1): 501 to 1500 nM; IC50 [1]: 501 to 1500 nM; IC50 [3]: 1 to 50 nM; AAK1:GAK pSENs Selectivity ([3]; ratio of AAK1 pSENs activity to GAK pSENs activity, class symbols): A (A: ≤0.015)"
COc1ncccc1-c1cnn2ccc(N3CCN(C(=O)OC(C)C)CC3)nc12 [LP-935509],–,–,–,–,IC50 [1]: 33.3 nM; IC50 [2]: 720 nM
"O=C1C[C@H](OC(=O)N2CCN(c3ccn4ncc(-c5cccnc5OC5CC5)c4n3)CC2)CN1 [Compound I-11, [(3S)-5-Oxopyrrolidin-3-yl]-4-[3-[2-(cyclopropoxy)-3-pyridyl]pyrazolo[1,5-a]pyrimidin-5-yl]piperazine-1-carboxylate hydrochloric acid]",151 to 500,–,1 to 50,151 to 500,–
"COc1ccccc1-c1cnn2ccc(N3CCN(C(=O)O[C@H]4CO[C@H]5OCC[C@H]54)CC3)nc12 [Compound I-69, (3R,3aS,6aR)-hexahydrofuro[2,3-b]furan-3-yl 4-(3-(2-methoxyphenyl)pyrazolo[1,5-a]pyrimidin-5-yl)piperazine-1-carboxylate]",151 to 500,–,1 to 50,501 to 1500,–
"CC(=O)N1CC(Oc2ncccc2-c2cnn3ccc(NCCN(C)C(=O)OC(C)(C)C)nc23)C1 [Compound I-63, Tert-butyl (2-((3-(2-((1-acetylazetidin-3-yl)oxy)pyridin-3-yl)pyrazolo[1,5-a]pyrimidin-5-yl)amino)ethyl)(methyl)carbamate]",51 to 150,–,1 to 50,51 to 150,–
